Results from patent US12251387B2, “Substituted quinoxalines and benzo[c][1,2,5]oxadiazoles as DNA-PK inhibitors” (Vertex Pharmaceuticals Incorporated, priority 2013, dated 2025).

target: DNA-PK (Homo sapiens, UniProt P78527); test: DNA-PK Inhibition Assay (standard radiometric kinase assay, 33P-ATP, peptide substrate); type: biochemical; settings: radiometric assay, approximately 6 nM DNA-PK, 100 μM ATP, 45 min; fit to competitive tight-binding inhibition; read-out: Ki for the inhibition of DNA-PK
How it was run: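 Radiometric transfer of 33P from ATP (100 μM) to peptide substrate (0.8 mg/mL) by about 6 nM DNA-PK with 10 μg/mL sheared dsDNA, pH 7.5 HEPES/MgCl2, 45 min, phosphoric acid quench, filter capture and scintillation counting. Ki fitted to a competitive tight-binding inhibition model.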

Row | Compound | Ki [nM]
1 | COc1cnc(N(C)C)nc1N[C@H]1CC[C@@H](Oc2cc(N3CCOCC3)cc3nccnc23)CC1 [Compound 386] | < 100
2 | CCOc1ccc(N[C@H]2CC[C@@H](Oc3cc(N4CCOCC4)cc4nccnc34)CC2)nc1 [Compound 658] | < 100
3 | Cc1nccc(N[C@H]2CC[C@@H](Oc3cc(N4CC5CCC(C4)O5)cc4nccnc34)CC2)n1 [Compound 297] | < 100
4 | c1cc(N[C@H]2CC[C@@H](Oc3cc(N4CCOCC4)cc4nccnc34)CC2)n2nccc2c1 [Compound 580] | < 100
5 | Cc1cnc2cc(N3CCOCC3)cc(O[C@H]3CC[C@@H](Nc4ncc(C5CCN(C)CC5)cn4)CC3)c2n1 [Compound 544] | < 100
6 | CCOC1CCN(c2cc(N[C@H]3CC[C@@H](Oc4cc(N5CCOCC5)cc5nccnc45)CC3)ncn2)CC1 [Compound 472] | < 100
7 | FC(F)(F)c1cc(N[C@H]2CC[C@@H](Oc3cc(N4CCOCC4)cc4nccnc34)CC2)ncn1 [Compound 417] | < 100
8 | Clc1ccnc(N[C@H]2CC[C@@H](Oc3cc(N4CCOCC4)cc4nccnc34)CC2)n1 [Compound 532] | < 100
9 | Fc1nc(N[C@H]2CC[C@@H](Oc3cc(N4CCOCC4)cc4nccnc34)CC2)c2nc[nH]c2n1 [Compound 521] | < 100
10 | COc1cccnc1N[C@H]1CC[C@@H](Oc2cc(N3CCOCC3)cc3nccnc23)CC1 [Compound 592] | < 100
11 | OC1CCN(c2cc(N[C@H]3CC[C@@H](Oc4cc(N5CCOCC5)cc5nccnc45)CC3)ncn2)CC1 [Compound 492] | < 100
12 | c1cnc2c(O[C@H]3CC[C@@H](Nc4ncc5occc5n4)CC3)cc(N3CCOCC3)cc2n1 [Compound 563] | < 100
13 | CN1CC[C@@H](Nc2ncnc(N[C@H]3CC[C@@H](Oc4cc(N5CCOCC5)cc5nccnc45)CC3)c2F)C1 [Compound 327] | < 100
14 | COC(=O)c1ccc(N[C@H]2CC[C@@H](Oc3cc(N4CCOCC4)cc4nccnc34)CC2)cc1OC [Compound 394] | < 100
15 | CCOc1cnc(N[C@H]2CC[C@@H](Oc3cc(N4CCOCC4)cc4nccnc34)CC2)cn1 [Compound 334] | < 100
16 | COc1ccnc(N[C@H]2CC[C@@H](Oc3cc(N4CCOCC4)cc4nccnc34)CC2)c1 [Compound 627] | < 100
17 | CN1CCc2ncnc(N[C@H]3CC[C@@H](Oc4cc(N5CCOCC5)cc5nccnc45)CC3)c2C1 [Compound 398] | < 100
18 | CN(C)c1ccnc(N[C@H]2CC[C@@H](Oc3cc(N4CCOCC4)cc4nccnc34)CC2)n1 [Compound 489] | < 100
19 | CN1CCN(c2cc(N[C@H]3CC[C@@H](Oc4cc(N5CCOCC5)cc5nccnc45)CC3)ncn2)CC1 [Compound 537] | < 100
20 | Cc1cc(N[C@H]2CC[C@@H](Oc3cc(N4CCOCC4)cc4nccnc34)CC2)ccn1 [Compound 285] | < 100
21 | Cc1cnc(C)c(N[C@H]2CC[C@@H](Oc3cc(N4CCOCC4)cc4nccnc34)CC2)n1 [Compound 333] | < 100
22 | CN1CCN(CCOc2cc(N[C@H]3CC[C@@H](Oc4cc(N5CCOCC5)cc5nccnc45)CC3)ncn2)CC1 [Compound 562] | < 100
23 | c1cnc2c(O[C@H]3CC[C@@H](Nc4ncc(CN5CCOCC5)cn4)CC3)cc(N3CCOCC3)cc2n1 [Compound 530] | < 100
24 | CNc1nccc(N[C@H]2CC[C@@H](Oc3cc(N4CCOCC4)cc4nccnc34)CC2)n1 [Compound 454] | < 100
25 | CNC(=O)c1cc(N[C@H]2CC[C@@H](Oc3cc(C4=CCOCC4)cc4nccnc34)CC2)ncn1 [Compound 321] | < 100
26 | CNC(=O)c1ccnc(N[C@H]2CC[C@@H](Oc3cc(C4=CCOCC4)cc4nccnc34)CC2)n1 [Compound 319] | < 100
27 | CC(C)(O)c1ccnc(N[C@H]2CC[C@@H](Oc3cc(N4CCOCC4)cc4nccnc34)CC2)c1 [Compound 573] | < 100
28 | CCc1nccc(N[C@H]2CC[C@@H](Oc3cc(N4CCOCC4)cc4nccnc34)CC2)n1 [Compound 439] | < 100
29 | COc1cc(N[C@H]2CC[C@@H](Oc3cc(N4CCOCC4)cc4nccnc34)CC2)ccn1 [Compound 440] | < 100
30 | NC1(c2ccc(N[C@H]3CC[C@@H](Oc4cc(N5CCOCC5)cc5nccnc45)CC3)cn2)CC1 [Compound 466] | < 100
